According to EP4682141A1, “TRICYCLIC COMPOUND” (ONO Pharmaceutical Co., Ltd., priority 2023, dated 2024):

How the values were obtained:
[1] = tested on: Alport syndrome model mice; assay: in vivo drug efficacy in Alport syndrome model mice; parameters: species or system COL4A5 homozygote knockout mice; settings: Control-4 group: irbesartan (50 mg/kg) orally once a day for 17 weeks; 16 weeks after the start of administration
Protocol: The in vivo drug efficacy of the present compound on Alport syndrome was evaluated using COL4A5 (causative gene of Alport syndrome) knockout mice.
Male wild-type mice and female COL4A5 hetero knockout mice were naturally crossed to obtain offspring. Genotypes of the offspring were confirmed and male COL4A5 homozygote knockout mice were obtained.
The obtained animals were fed ad libitum with CE-2 (CLEA Japan), and watered ad libitum.
The mice were divided into groups using a statistical analysis system EXSUS10.0 so that the body weight and the urine albumin/urine creatinine value at the time of 6 weeks of age were almost uniform in each group.
The test substance and water for injection (Otsuka Pharmaceutical) as a vehicle were orally administered at 10 mL/kg once a day for 17 weeks.
The Control-3 group was orally administered water for injection at 10 mL/kg once a day for 17 weeks. In the Control-4 group, water for injection and an administration solution of irbesartan which is a renin angiotensin system inhibitor were mixed in equal amounts at 5 mL/kg each, and orally administered once a day for 17 weeks.
The administration dose is described in Table 11.
Blood collection was performed by cutting the tail vein of the mice a little with a razor and using a hematocrit capillary. Blood was centrifuged to obtain plasma. Urine was collected for about 16 hours in a metabolic cage for mouse under conditions in which a solid feed and water can be freely taken. The obtained urine sample was centrifuged, and the supernatant was subjected to measurement. Urine albumin (U-ALB) and urine creatinine (U-CRE) concentrations were measured by an automatic analyzer Hitachi 7180 (Hitachi High-Tech), and the creatinine concentration in plasma was measured using LabAssay Creatinine (Fujifilm Wako Shibayagi).

EP1 = molecular target: T1, EP1 (Homo sapiens, UniProt P34995); assay: agonist activity on human EP1 receptor (intracellular calcium concentration, EP1-CHO cells); type: cell-based
T1 construct: expressed in transfected cells; host or cells: CHO (EP1-CHO)
T1 sequence (P34995 1-402): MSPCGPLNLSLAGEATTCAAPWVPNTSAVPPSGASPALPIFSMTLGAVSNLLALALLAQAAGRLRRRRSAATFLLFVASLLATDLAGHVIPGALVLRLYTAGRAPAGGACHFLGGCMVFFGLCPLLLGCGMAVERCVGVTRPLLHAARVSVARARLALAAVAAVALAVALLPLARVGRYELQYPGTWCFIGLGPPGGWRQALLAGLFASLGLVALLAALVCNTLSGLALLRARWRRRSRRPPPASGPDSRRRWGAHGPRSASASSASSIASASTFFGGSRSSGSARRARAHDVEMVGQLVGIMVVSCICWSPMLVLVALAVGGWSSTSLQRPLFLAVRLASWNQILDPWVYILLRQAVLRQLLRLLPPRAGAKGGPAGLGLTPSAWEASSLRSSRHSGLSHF
Protocol: Using CHO cells (EP1-CHO, EP2-CHO, EP3-Chem1, EP4-CHO and IP-CHO) on which various human prostanoid receptors were forcibly expressed, the agonist activity of the test compound on the various prostanoid receptors was examined using the intracellular calcium concentration for EP1 and EP3, and the intracellular cyclic AMP (hereinafter, abbreviated as cAMP) production amount for EP2, EP4 and IP as indices.
The test compound and control substances (PGE2 and iloprost) were dissolved in dimethyl sulfoxide (DMSO) to prepare a 10 mmol/L solution. The prepared 10 mmol/L solution was thawed at the time of use, serially diluted using DMSO, and diluted with a buffer solution 1 for measurement (Hank's balanced salt solution (Thermofischer scientific) containing 1 w/v% human serum albumin (Sigma), 2 µmol/L indomethacin (Sigma), 2.5 mmol/L probenecid, and 10 mmol/L HEPES-NaOH (pH7.4)) or a buffer solution 2 for measurement (D-PBS (Nacalai Tesque) containing 0.1 w/v% human serum albumin, 2 µmol/L diclofenac (Sigma), and 1 mmol/L 3-isobutyl-1-methylxanthine (Sigma)) to perform experiments.
The intracellular calcium concentration was measured using Calcium 6 Assay Kit (Molecular Devices). On the day before the measurement, EP1-CHO and EP3-Chem 1 were obtained by thawing the frozen cells, suspended using Ham's F-12 medium (Thermofischer scientific) containing inactivated (56°C, 30 min) 9.8 vol% FBS (Thermofischer scientific) and penicillin-streptomycin (Nacalai Tesque), seeded into a 96 well UV plate to 1.0×10^5 cells per well, and static cultured at 37°C in the presence of 5%CO2. On the day of the measurement, the medium was removed, followed by addition of 120 µL of the Calcium indication solution dissolved in the buffer solution 1 for measurement and incubation at room temperature under light-shielding for about 1 hour. After 1 hour incubation, the 96 well UV plates were set in a fluorescence spectrophotometer (FDSS-7000, Hamamatsu Photonics) to measure the intracellular calcium concentration. Thirty microliters of the buffer solution 1 for measurement containing various concentrations of agonists were added, and the mixture was reacted. The intracellular calcium concentration was measured by irradiating the cells with 480 nm excitation light and measuring the fluorescence intensity at 540 nm.

diabetes model rat = assay: inhibitory effect on the amount of albumin excreted in urine in diabetes model rat; type: in vivo, SDT Fatty rats; settings: urine collected for 24 hours, urine albumin/urine creatinine ratio
Protocol: Male SDT Fatty rats aged 6 weeks (CLEA Japan) were purchased and preliminarily bred for 1 week or more. Experiments were performed at 8 to 16 weeks of age. The animals were fed ad libitum with solid feed CRF-1 (Oriental Yeast) and watered ad libitum.
Animals were housed in metabolic cages 2 days before test substance administration, and urine was collected for 24 hours. On the day before administration of the test substance, urine albumin and urine creatinine were measured, and grouping was performed by a stratification randomization method based on the urine albumin/urine creatinine ratio (ACR) and the average value of body weights for each group.
The compounds (test substances) of Examples 9-5, 10, 11, 12, 25-7 and 32, and water for injection (Otsuka Pharmaceutical) as a vehicle were orally administered once at 5 mL/kg. The administration dose is described in Table 3.
For evaluation of the amount of albumin excreted in urine of each animal, a urine albumin/urine creatinine ratio (ACR) was measured. After administration of the test substance, the animals were housed in metabolic cages, and urine was collected for 24 hours. Each concentration of urine albumin and urine creatinine was measured using an automatic analyzer 7180 (Hitachi High-Tech), and ACR was calculated by dividing the urine albumin concentration by the urine creatinine concentration.

[2] = tested on: diabetic renal disease model rat; assay: in vivo drug efficacy in diabetic renal disease model rat (single kidney removal, saline); parameters: species or system SDT.Cg-Leprfa/JttJcl (SDT-fatty rat); settings: 8 weeks after the start of administration
Protocol: A diabetic renal disease model was created by extracting the unilateral kidneys of male SDT.Cg-Leprfa/JttJcl (SDT-fatty/Jcl, CLEA Japan) rats, a type 2 diabetes model, and then giving saline. The in vivo drug efficacy of the present compound on diabetic renal disease was evaluated in this model.
Male SDT.Cg-Leprfa/JttJcl (SDT-fatty rat) aged 4 weeks was purchased from CLEA Japan, and subjected to experiments. The animals were fed ad libitum with Purina5008 (Japan SLC) from the time of arrival, and watered ad libitum. Water was given from the arrival and until 1 week from single kidney removal, and a 0.2 w/v% NaCl solution was given 1 week after single kidney removal.
After acclimation breeding, the body weight was measured, and buprenorphine was subcutaneously administered at a dose of 0.01 mg/kg under inhalation anesthesia with isoflurane (Mayran). After removing hair from the right abdomen of the rat, the right abdomen was disinfected with ethanol and isodine for disinfection and incised to expose the right kidney. The renal artery and vein was ligated with a suture to stop the blood flow, the right kidney was totally removed, and the incision was sutured. The following day, analgesic buprenorphine was administered subcutaneously at a dose of 0.01 mg/kg.
Grouping was performed 3 weeks after single kidney removal. The mice were divided into groups so that the average of the above parameters was almost equal between the groups on the basis of body weight, serum urea nitrogen (BUN), serum creatinine (S-CRE), serum total cholesterol (T-CHO), blood glucose level (GLU), neutral fat (TG), urinary protein (U-TP), urinary albumin (U-ALB), and creatinine clearance (CCr).
All of the compounds of Examples 25-7, 10, 11 and 12 were orally administered once a day for 8 weeks in combination with losartan (30 mg/kg), a renin angiotensin system inhibitor, and canagliflozin (10 mg/kg), a glucose co-transporter inhibitor. The compounds of Examples 25-7, 10, 11 and 12, and losartan were each dissolved in water for injection (Otsuka Pharmaceutical), and canagliflozin was suspended in a 0.5% methyl cellulose solution (Fujifilm Wako Pure Chemical Corporation) to prepare an administration solution. In the Control-1 group, water for injection which is a vehicle of losartan or the compound of Examples 25-7, 10, 11 or 12 was orally administered at 5 mL/kg, and a 0.5% methylcellulose solution which is a vehicle of canagliflozin was orally administered at 2.5 mL/kg once a day for 8 weeks. In the Control-2 group, losartan (30 mg/kg) dissolved in water for injection was orally administered at an administration volume of 2.5 mL/kg, canagliflozin (10 mg/kg) suspended in a 0.5% methyl cellulose solution was orally administered at an administration volume of 2.5 mL/kg, and water for injection which is a vehicle of the compounds of Examples 25-7, 10, 11 and 12 was orally administered at an administration volume of 2.5 mL/kg once a day for 8 weeks. The administration dose is described in Table 8.
Blood was collected by puncturing the tail vein of the rat with an injection needle. Blood was collected in a tube for serum separation (BD Microtainer) and centrifuged to obtain serum. Urine was collected for 24 hours in a metabolic cage for rat under conditions in which a solid feed and water can be freely taken. The obtained urine sample was centrifuged, and the supernatant was subjected to measurement. The concentrations of BUN, S-CRE, T-CHO, TG, U-ALB, U-TP, GLU and U-CRE were measured by an automatic analyzer Hitachi 7180 (Hitachi High-Tech).

[3] = tested on: rat 5/6 kidney-removed model; assay: in vivo drug efficacy on renal damage in rat 5/6 kidney-removed model; parameters: species or system Jcl: Wistar (Wistar) rats; settings: after 8 weeks from the start of administration
Description: The obtained urine sample was centrifuged, and the supernatant was subjected to measurement.

With `CCCCC1=NC2(CCCC2)C(=O)N1Cc1ccc(-c2ccccc2-c2nnn[nH]2)cc1` [Irbesartan, irbesartan, reference compound] the Plasma creatinine mean [1] was 0.771 mg/dL and the “Urine Albumin/ Urine Creatinine Ratio mean” value [1] was 31414.47 mg/g.
For `O=C(O)c1ccc2c(c1F)O[C@H]1C[C@@H](Cl)[C@H](/C=C/C(O)C3(c4ccccc4F)COC3)[C@H]1CC2` (stereo partly drawn) [Example 32, (1R,2R,3aS,10aR)-2-chloro-5-fluoro-1-{(1E,3ξ)-3-[3-(2-fluorophenyl)-3-oxetanyl]-3-hydroxy-1-propen-1-yl}-2,3,3a,9,10,10a-hexahydro-1H-benzo[b]cyclopenta[f]oxepine-6-carboxylic acid], the EC50 (EP1) was greater than 10 µM, the ACR mean (diabetes model rat; 0.03 mg/kg orally once) was 3391 µg/mg and the ACR mean (diabetes model rat; 0.1 mg/kg orally once) was 3086.1 µg/mg.
For `Cc1c(C(=O)O)ccc2c1O[C@H]1C[C@@H](O)[C@H](/C=C/C[C@@](C)(O)CCC(F)=C(F)F)[C@H]1CC2` [Example 11, (1R,2R,3aS,10aR)-2-hydroxy-5-methyl-1-[(1E,45)-7,8,8-trifluoro-4-hydroxy-4-methyl-1,7-octadien-1-yl]-2,3,3a,9,10,10a-hexahydro-1H-benzo[b]cyclopenta[f]oxepine-6-carboxylic acid], the Serum creatinine mean ([2]; 0.01 mg/kg orally once a day for 8 weeks in combination with losartan (30 mg/kg) and canagliflozin (10 mg/kg)) was 0.46 mg/dL, the Serum creatinine mean ([2]; 0.03 mg/kg orally once a day for 8 weeks in combination with losartan (30 mg/kg) and canagliflozin (10 mg/kg)) was 0.47 mg/dL and the “Amount of albumin excreted in urine mean” value ([3]; 0.01 mg/kg orally once a day for 8 weeks) was 46.01 mg/24 h. For the same compound, the “Amount of albumin excreted in urine mean” value ([3]; 0.03 mg/kg orally once a day for 8 weeks) was 37.94 mg/24 h, the EC50 (EP1) was greater than 10 µM and the ACR mean (diabetes model rat; 0.01 mg/kg orally once) was 1010.5 µg/mg. It also gave an ACR mean (diabetes model rat; 0.03 mg/kg orally once) of 575.3 µg/mg.
For `Cc1c(C(=O)O)ccc2c1O[C@H]1C[C@@H](O)[C@H](/C=C/C(O)C3(c4ccc(F)cc4)CCC3)[C@H]1CC2` (stereo partly drawn) [Example 9-5, (1R,2R,3aS,10aR)-1-{(1E,3ξ)-3-[1-(4-fluorophenyl)cyclobutyl]-3-hydroxy-1-propen-1-yl}-2-hydroxy-5-methyl-2,3,3a,9,10,10a-hexahydro-1H-benzo[b]cyclopenta[f]oxepine-6-carboxylic acid], the EC50 (EP1) was greater than 10 µM, the ACR mean (diabetes model rat; 0.1 mg/kg orally once) was 4691.4 µg/mg and the ACR mean (diabetes model rat; 0.3 mg/kg orally once) was 4466.2 µg/mg.
Compound `CC(c1ccccc1F)C(O)/C=C/[C@@H]1[C@H]2CCc3ccc(C(=O)O)c(F)c3O[C@H]2C[C@H]1O` (stereo partly drawn) [Example 3, (1R,2R,3aS,10aR)-5-fluoro-1-[(1E)-4-(2-fluorophenyl)-3-hydroxy-1-penten-1-yl]-2-hydroxy-2,3,3a,9,10,10a-hexahydro-1H-benzo[b]cyclopenta[f]oxepine-6-carboxylic acid] has an EC50 (EP1) of 7.3 µM.
With `Cc1c(C(=O)O)ccc2c1O[C@H]1CO[C@H](/C=C/C(O)C3(Oc4ccccc4)CCC3)[C@H]1CC2` (stereo partly drawn) [Example 41-2, (1R,3aR,10aR)-1-[(1E,3ξ)-3-hydroxy-3-(1-phenoxycyclobutyl)-1-propen-1-yl]-5-methyl-1,3,3a,9,10,10a-hexahydrofuro[3,4-b][1]benzoxepine-6-carboxylic acid] the EC50 (EP1) was greater than 10 µM.
Compound `O=C(O)c1ccc2c(c1F)O[C@H]1C[C@@H](Cl)[C@H](/C=C/C(O)C3(c4ccccc4)CCO3)[C@H]1CC2` (stereo partly drawn) [Example 32-6, (1R,2R,3aS,10aR)-2-chloro-5-fluoro-1-{(1E,3ξ)-3-hydroxy-3-[(2ξ)-2-phenyl-2-oxetanyl]-1-propen-1-yl}-2,3,3a,9,10,10a-hexahydro-1H-benzo[b]cyclopenta[f]oxepine-6-carboxylic acid] has an EC50 (EP1) greater than 10 µM.
